# Several values for one entry are separate records, joined by “and”; a condition that tells them apart may be missing. Equal entries are not always repeated. Where two headings read alike, the source gives them in different places.
# How the values were obtained:
# E. coli [1] = assay: MIC100, modified NCCLS microbroth dilution (Table 6); assay type: cell-based; details: Escherichia coli
# [2] = system: S. aureus and methicillin-resistant S. aureus (MRSA); assay: as above; assay type: cell-based; details: Staphylococcus aureus
# E. coli [3] = assay: Modified NCCLS microbroth dilution MIC assay; assay type: cell-based; details: Escherichia coli; for MIC: 18 to 20 hours incubation, OD 600 nm
# human erythrocytes = assay: Hemolysis of human erythrocytes (HC50); details: for Hemolysis HC50: one hour incubation, 50% hemoglobin release, Table 1
# B. subtilis = assay: Modified NCCLS microbroth dilution MIC assay; details: Bacillus subtilis; for MIC: read-out: B. subtilis MIC
# Candida albicans = assay: MIC100, clinical isolates of hospital-acquired pathogens (Table 7); assay type: cell-based; details: one table line per isolate, RPMI synthetic medium, in µg/mL
# Enterococcus faecalis = assay: as above; assay type: cell-based; details: control strain ATCC 29212
# Haemophilus influenzae = assay: as above; assay type: cell-based; details: Mueller Hinton+NAD+yeast extract+hematin
# Streptococcus pyogenes = assay: as above; assay type: cell-based; details: Mueller Hinton+2-5% lysed horse blood, in µg/mL
# Streptococcus pneumoniae = assay: as above; assay type: cell-based; details: for mic (MIC100) Streptococcus pneumoniae: clinical isolates, no phenotype given; for mic (MIC100) Streptococcus pneumoniae / mic (MIC100) Streptococcus pneumoniae PEN-R: Mueller Hinton+2-5% lysed horse blood, in µg/mL; for mic (MIC100) Streptococcus pneumoniae ATCC 49619: control strain ATCC 49619; for mic (MIC100) Streptococcus pneumoniae PEN-R: penicillin-resistant clinical isolates
# Aspergillus fumigatus = assay: Antifungal MIC/MFC, NCCLS M38-A; assay type: cell-based
# Protocol: (§1) MIC endpoints were determined for A. fumigatus, P. funiculosum, C. globosum and T. virens according to current NCCLS guidelines defined for testing A. fumigatus (NCCLS M38-A, 2002). […] Amphotericin B was included in the screen with C. albicans as a positive control. All MIC testing was done in 96 well microtiter panels using RPMI 1640 (with glutamine and without bicarbonate) broth as a growth media. Incubation was at 35° C., and growth was read at 48, 72, (and for some slow growing fungal species, 96 hours). […] MFC (minimal fungicidal concentrations) endpoints were calculated using a modified methodology based on the NCCLS defined methodology for measuring minimal bactericidal concentrations (MBC). Experimentation to calculate MFCs was undertaken only for those organisms for which an MIC endpoint was satisfactorily calculated. MFCs are defined as the concentration required to reduce the number of viable organisms by at least 90%.
# Chaetomium globosum = assay: Antifungal MIC/MFC, NCCLS M38-A; assay type: cell-based
# Protocol: as §1
# Penicillium funiculosum = assay: Antifungal MIC/MFC, NCCLS M38-A; assay type: cell-based
# Protocol: as §1
# Trichoderma virens = assay: Antifungal MIC/MFC, NCCLS M38-A; assay type: cell-based
# Protocol: as §1
# B. anthracis = assay: microbe, parasite or virus in culture; assay type: cell-based, Bacillus anthracis
# Y. pestis = assay: microbe, parasite or virus in culture; assay type: cell-based; details: Yersinia pestis, 30 h, read-out: MIC100 Y. pestis (30 hr)
# S. aureus = assay type: cell-based; details: S. aureus passaged at 0.5x MIC100; by passage 16 (17 consecutive passages)
# [4] = concentration reducing viable organisms by at least 90%
structure (smiles),measurement,setting,value
"NCC[C@H](O)C(=O)N[C@@H]1C[C@H](N)[C@@H](O[C@H]2O[C@H](CN)[C@@H](O)[C@H](O)[C@H]2O)[C@H](O)[C@H]1O[C@H]1O[C@H](CO)[C@@H](O)[C@H](N)[C@H]1O [Amikacin, amikacin, reference compound]",MIC,"E. coli [1]; strain ATCC25922, read-out: MIC100 E. coli ATCC25922",1 µg/mL
same,MIC,"E. coli [1]; strain OC2530, read-out: MIC100 E. coli OC2530",2 µg/mL
same,MIC,"[2]; ATCC 29213 / MRSA, strain ATCC29213 (Table 6), read-out: MIC100 S. aureus ATCC29213",2 µg/mL
same,MIC,"[2]; MRSA, methicillin-resistant S. aureus OC2878, read-out: MIC100 MRSA OC2878",64 µg/mL
CCCCCOc1c(I)cc(CN)cc1C#Cc1cccc(C#Cc2cc(CN)cc(I)c2OCCCCC)c1 [Compound 5],MIC,E. coli [3],25 µg/mL
same,Hemolysis HC50,human erythrocytes; human erythrocytes,<12.5 µg/mL
same,MIC,B. subtilis,100 µg/mL
N=C(N)NCCc1cc(Br)cc(C#Cc2cccc(C#Cc3cc(Br)cc(CCNC(=N)N)c3)c2)c1 [Compound 2],MIC90,E. coli [3]; read-out: MIC90 E. Coli,1.6 µg/mL
same,MIC,E. coli [3],3.2 µg/mL
same,Hemolysis HC50,human erythrocytes; human erythrocytes,8 µg/mL
same,HC50,"human erythrocytes; human erythrocytes, Table 2",8.5 µg/mL
same,Selectivity HC50/MIC E.coli,human erythrocytes; ratio of HC50 to E. coli MIC,5.3
same,MIC,B. subtilis,1.6 µg/mL
same,MIC90,B. subtilis; read-out: MIC90 B. subtilis,1.6 µg/mL
"CN[C@H](CC(C)C)C(=O)N[C@H]1C(=O)N[C@@H](CC(N)=O)C(=O)N[C@H]2C(=O)N[C@H]3C(=O)N[C@H](C(=O)N[C@H](C(=O)O)c4cc(O)cc(O)c4-c4cc3ccc4O)[C@H](O)c3ccc(c(Cl)c3)Oc3cc2cc(c3O[C@@H]2O[C@H](CO)[C@@H](O)[C@H](O)[C@H]2O[C@H]2C[C@](C)(N)[C@H](O)[C@H](C)O2)Oc2ccc(cc2Cl)[C@H]1O [VANCO, vancomycin]",mic (MIC100) Candida albicans,Candida albicans,>32
same,mic (MIC100) Enterococcus faecalis ATCC 29212,Enterococcus faecalis,4 µg/mL
same,mic (MIC100) Haemophilus influenzae,Haemophilus influenzae; in µg/mL,>32
same,mic (MIC100) Streptococcus pyogenes,Streptococcus pyogenes,0.5
same,mic (MIC100) Streptococcus pneumoniae,Streptococcus pneumoniae,0.5
same,mic (MIC100) Streptococcus pneumoniae ATCC 49619,Streptococcus pneumoniae,0.5 µg/mL
same,mic (MIC100) Streptococcus pneumoniae PEN-R,Streptococcus pneumoniae,0.5 and 1
NCCNC(=O)c1cc(Br)cc(C#Cc2cccc(C#Cc3cc(Br)cc(C(=O)NCCN)c3)c2)c1 [Compound 4],MIC,E. coli [3],50 µg/mL
same,Hemolysis HC50,human erythrocytes; human erythrocytes,12.5 µg/mL
same,MIC,B. subtilis,25 µg/mL
"OC(Cn1cncn1)(Cn1cncn1)c1ccc(F)cc1F [Fluconazole, reference compound]",MIC Aspergillus fumigatus,"Aspergillus fumigatus; RPMI 1640, 35° C.",>32/>32
same,MFC Aspergillus fumigatus,Aspergillus fumigatus; [4],>32/>32
same,MIC Chaetomium globosum,"Chaetomium globosum; RPMI 1640, 35° C.",0.25/0.25
same,MFC Chaetomium globosum,Chaetomium globosum; [4],0.25/0.25
same,MIC Penicillium funiculosum,"Penicillium funiculosum; RPMI 1640, 35° C.",4 µg/mL
same,MFC Penicillium funiculosum,Penicillium funiculosum; [4],> 32 µg/mL
same,MIC Trichoderma virens,"Trichoderma virens; RPMI 1640, 35° C.",>128/>128
same,MFC Trichoderma virens,Trichoderma virens; [4],>128/>128
"O=C(O)c1cn(C2CC2)c2cc(N3CCNCC3)c(F)cc2c1=O [Ciprofloxacin, ciprofloxacin, reference compound]",MIC,"B. anthracis; Bacillus anthracis, 24 h, read-out: MIC100 B. anthracis (24 hr)",0.125 to 0.25 µg/mL
same,Time course of growth inhibition of Bacillus anthracis,B. anthracis; growth recorded at 2 hour intervals over 24 hours (FIG. 3),transient cell growth was observed at early time points
same,MIC,Y. pestis,0.0312 µg/mL
same,increase in MIC on serial passage,S. aureus,125 fold
CCCCCOc1c(I)cc(CNC(=N)N)cc1C#Cc1cccc(C#Cc2cc(CNC(=N)N)cc(I)c2OCCCCC)c1 [Compound 6],MIC,E. coli [3],6.4 µg/mL
same,Hemolysis HC50,human erythrocytes; human erythrocytes,5 µg/mL
same,MIC,B. subtilis,3.2 µg/mL
"C[C@H]1COc2c(N3CCN(C)CC3)c(F)cc3c(=O)c(C(=O)O)cn1c23 [LEVOFLOX, levofloxacin]",mic (MIC100) Candida albicans,Candida albicans,>8
same,mic (MIC100) Enterococcus faecalis ATCC 29212,Enterococcus faecalis,0.5 µg/mL
same,mic (MIC100) Haemophilus influenzae,Haemophilus influenzae,≦0.03
same,mic (MIC100) Streptococcus pyogenes,Streptococcus pyogenes,0.25 and 0.5
same,mic (MIC100) Streptococcus pneumoniae,Streptococcus pneumoniae,1 and 0.5
same,mic (MIC100) Streptococcus pneumoniae ATCC 49619,Streptococcus pneumoniae,0.5 µg/mL
same,mic (MIC100) Streptococcus pneumoniae PEN-R,Streptococcus pneumoniae,0.5
"CC(=O)NC[C@H]1CN(c2ccc(N3CCOCC3)c(F)c2)C(=O)O1 [LINEZOLID, linezolid]",mic (MIC100) Candida albicans,Candida albicans,>8
same,mic (MIC100) Enterococcus faecalis ATCC 29212,Enterococcus faecalis,2 µg/mL
same,mic (MIC100) Haemophilus influenzae,Haemophilus influenzae; in µg/mL,>8 and 8
same,mic (MIC100) Streptococcus pyogenes,Streptococcus pyogenes,1
same,mic (MIC100) Streptococcus pneumoniae,Streptococcus pneumoniae,1
same,mic (MIC100) Streptococcus pneumoniae ATCC 49619,Streptococcus pneumoniae,1 µg/mL
same,mic (MIC100) Streptococcus pneumoniae PEN-R,Streptococcus pneumoniae,0.5 and 1
CCn1cc(C(=O)O)c(=O)c2cc(F)c(N3CCNCC3)cc21 [norfloxacin],increase in MIC on serial passage,S. aureus,160 fold
"C[C@@H]1[C@H](O)[C@@H](C)/C=C/C=C/C=C/C=C/C=C/C=C/C=C/[C@H](O[C@@H]2O[C@H](C)[C@@H](O)[C@H](N)[C@@H]2O)C[C@@H]2O[C@](O)(C[C@@H](O)C[C@@H](O)[C@H](O)CC[C@@H](O)C[C@@H](O)CC(=O)O[C@H]1C)C[C@H](O)[C@H]2C(=O)O [AMP B, amphotericin B]",mic (MIC100) Candida albicans,Candida albicans,2

# From patent US8716530B2, “Facially amphiphilic polyaryl and polyarylalkynyl polymers and oligomers and uses thereof” (The Trustess of the University of Pennsylvania, priority 2004, dated 2014)
